Laboratory results from patent publication US9247759B2, “Identification of human T2R receptors that respond to bitter compounds that elicit the bitter taste in compositions, and the use thereof in assays to identify compounds that inhibit (block) bitter taste in compositions and use thereof” (SENOMYX, INC., priority 2007, dated 2016).
Where two headings read alike, the source gives them in different places.

Target: hT2R8 (Homo sapiens (Human), UniProt Q9NYW2)
Assay: hT2R8 antagonist high-throughput FLIPR assay, stable cell line with G16g44, agonist andrographolide
Format: cell-based
Text: After a ligand is identified for a particular hT2R, a HEK293 cell line stably expressing both the hT2R and G16gust44 are generated, facilitating future screening assays to identify other ligands that activate the particular hT2R or which modulate (block or enhance) the activation of this hT2R by another bitter ligand such as a bitter compound contained in coffee. This avoids the need for transient transfection.
(§1) To identify antagonists, cell lines stably expressing hT2R8 and hT2R14, respectively, together with the promiscuous chimeric G16g44 protein were generated as described in previous patent applications. A high-throughput assay was established using the stable cell lines and FLIPR (Fluorescent Imaging Plate Reader). An agonist of hT2R8 or hT2R14 was used to activate the receptors up to 70-80% of their respective maximal activity. For hT2R8, the agonist used was andrographolide (200 λM); for hT2R14, it was aristolochic acid (3 μM). To identify antagonists, compounds with diverse chemical structures were added together with the agonist.
as §1, with “hT2R8” for “hT2R8 and hT2R14, respectively,”, “hT2R8” for “hT2R8 or hT2R14”, “(200” for “(200 λM); for hT2R14, it was aristolochic acid (3”

[1] = read-out: IC50 on hT2R8 bitter receptor
[2] = table after Example 10-97, read-out: hT2R8 IC50
[3] = table after Example 12-37, read-out: hT2R8 IC50
[4] = unit uM, read-out: IC50 on hT2R08 bitter receptor

hT2R8, sequence (Q9NYW2 whole entry): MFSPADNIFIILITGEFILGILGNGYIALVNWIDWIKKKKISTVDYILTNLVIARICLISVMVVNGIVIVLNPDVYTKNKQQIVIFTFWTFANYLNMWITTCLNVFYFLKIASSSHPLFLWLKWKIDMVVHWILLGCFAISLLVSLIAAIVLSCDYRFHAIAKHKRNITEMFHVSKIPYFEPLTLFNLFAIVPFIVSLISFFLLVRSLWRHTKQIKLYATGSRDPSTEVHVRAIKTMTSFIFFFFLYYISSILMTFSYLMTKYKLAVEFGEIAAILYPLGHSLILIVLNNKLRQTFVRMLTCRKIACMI

SMILES | IC50 [1] [µM] | IC50 [2] [µM] | IC50 [3] [µM] | also measured
Cc1noc(C)c1Cn1cc(N2C(=O)CNC2=O)cn1 [Example 10-1, 3-(1-((3,5-dimethylisoxazol-4-yl)methyl)-1H-pyrazol-4-yl)imidazolidine-2,4-dione] | 1.7 | 1.7 |  | 
COc1ccc(OC)c(NC(=S)Nc2cnn(Cc3c(C)noc3C)c2)c1 [Example 4-113, 1-(2,5-dimethoxyphenyl)-3-(1-((3,5-dimethylisoxazol-4-yl)methyl)-1H-pyrazol-4-yl)thiourea] |  |  |  | IC50 (Table A, read-out: hT2R8 IC50): 5.24 µM
Cc1noc(C)c1Cn1cc(N2C(=O)NC(CC(C)C)C2=O)cn1 (centres unmarked) [Example 10-61, 3-(1-((3,5-dimethylisoxazol-4-yl)methyl)-1H-pyrazol-4-yl)-5-isobutylimidazolidine-2,4-dione] | 1 | 0.912 |  | 
Cc1noc(C)c1Cn1cc(N2C(=O)N[C@H](Cc3ccccc3)C2=O)cn1 [Example 10-4, (R)-5-benzyl-3-(1-((3,5-dimethylisoxazol-4-yl)methyl)-1H-pyrazol-4-yl)imidazolidine-2,4-dione] | 0.11 | 0.112 |  | 
COCCOc1cccc(CN2CC(=O)N(c3cnn(Cc4c(C)noc4C)c3)C2=O)c1 [Example 10-14, 3-(1-((3,5-dimethylisoxazol-4-yl)methyl)-1H-pyrazol-4-yl)-1-(3-(2-methoxyethoxy)benzyl)imidazolidine-2,4-dione] |  | 0.071 |  | IC50 [4]: 0.07 µM
Cc1cc(C(=O)Nc2cnn(Cc3c(C)noc3C)c2)n(C)n1 [Example 4-52, N-(1-((3,5-dimethylisoxazol-4-yl)methyl)-1H-pyrazol-4-yl)-1,3-dimethyl-1H-pyrazole-5-carboxamide] |  |  |  | IC50 (Table A, read-out: hT2R8 IC50): 18.1 µM
COc1cccc(CN2CC(=O)N(c3cnn(Cc4c(C)noc4C)c3)C2=O)c1 [Example 10-6, 3-(1-((3,5-dimethylisoxazol-4-yl)methyl)-1H-pyrazol-4-yl)-1-(3-methoxybenzyl)imidazolidine-2,4-dione] | 0.07 | 0.073 |  | 
Cc1noc(C)c1Cn1cc(-n2c(=O)n(C)n(C)c2=O)cn1 [Example 10-69, 4-(1-((3,5-dimethylisoxazol-4-yl)methyl)-1H-pyrazol-4-yl)-1,2-dimethyl-1,2,4-triazolidine-3,5-dione] | 0.6 | 0.707 |  | 
Cc1noc(C)c1Cn1cc(NC(=S)NCc2ccccc2)cn1 [Example 4-110, 1-benzyl-3-(1-((3,5-dimethylisoxazol-4-yl)methyl)-1H-pyrazol-4-yl)thiourea] |  |  |  | IC50 (Table A, read-out: hT2R8 IC50): 1.1 µM
Cc1noc(C)c1Cn1cc(NC(=O)c2cc3c(cc2Cl)OCCO3)cn1 [Example 4-90, 7-chloro-N-(1-((3,5-dimethylisoxazol-4-yl)methyl)-1H-pyrazol-4-yl)-2,3-dihydrobenzo[b][1,4]dioxine-6-carboxamide] |  |  |  | IC50 (Table A, read-out: hT2R8 IC50): 0.1 µM
COc1cccc(CN2CC(=O)N(c3cnn(Cc4c(C)noc4C)c3)C2=O)n1 [Example 10-75, 3-(1-((3,5-dimethylisoxazol-4-yl)methyl)-1H-pyrazol-4-yl)-1-((6-methoxypyridin-2-yl)methyl)imidazolidine-2,4-dione] | 0.23 | 0.229 |  | 
CNC(=O)c1cccc(CN2CC(=O)N(c3cnn(Cc4c(C)noc4C)c3)C2=O)c1 [Example 10-9, 3-((3-(1-((3,5-dimethylisoxazol-4-yl)methyl)-1H-pyrazol-4-yl)-2,4-dioxoimidazolidin-1-yl)methyl)-N-methylbenzamide] | 0.14 | 0.141 |  | 
COc1ccccc1S(=O)(=O)Nc1cnn(Cc2c(C)noc2C)c1 [Example 4-103, N-(1-((3,5-dimethylisoxazol-4-yl)methyl)-1H-pyrazol-4-yl)-2-methoxybenzenesulfonamide] |  |  |  | IC50 (Table A, read-out: hT2R8 IC50): 3.8 µM
Cc1noc(C)c1Cn1cc(N2C(=O)CN(Cc3cccc(C#N)c3)C2=O)cn1 [Example 10-25, 3-((3-(1-((3,5-dimethylisoxazol-4-yl)methyl)-1H-pyrazol-4-yl)-2,4-dioxoimidazolidin-1-yl)methyl)benzonitrile] |  | 1 |  | IC50 [4]: 1 µM
Cc1noc(C)c1Cn1cc(NC(=O)c2ccc3c(c2)OC(F)(F)O3)cn1 [Example 4-78, N-(1-((3,5-dimethylisoxazol-4-yl)methyl)-1H-pyrazol-4-yl)-2,2-difluorobenzo[d][1,3]dioxole-5-carboxamide] |  |  |  | IC50 (Table A, read-out: hT2R8 IC50): 1.3 µM
COc1cccc(C(=O)Nc2nnn(Cc3c(C)noc3C)n2)c1 [Example 10-39, N-(2-((3,5-dimethylisoxazol-4-yl)methyl)-2H-tetrazol-5-yl)-3-methoxybenzamide] | 1.87 |  |  | 
Cc1ccccc1CN1CC(=O)N(c2cnn(Cc3c(C)noc3C)c2)C1=O [Example 10-20, 3-(1-((3,5-dimethylisoxazol-4-yl)methyl)-1H-pyrazol-4-yl)-1-(2-methylbenzyl)imidazolidine-2,4-dione] |  | 0.133 |  | IC50 [4]: 0.1 µM

Continued, in another order:

IC50 [1] [µM] | IC50 [2] [µM] | IC50 [3] [µM] | SMILES | also measured
 |  | 0.3 | COc1cccc(CN2C(=O)N(c3cnn(Cc4c(C)noc4C)c3)C(=O)C2(C)C)c1OC [Example 12-64, 1-(2,3-dimethoxybenzyl)-3-(1-((3,5-dimethylisoxazol-4-yl)methyl)-1H-pyrazol-4-yl)-5,5-dimethylimidazolidine-2,4-dione] | 
0.16 |  |  | Cc1noc(C)c1Cn1cc(N2C(=O)N(Cc3cc(C)n(C)n3)C(C)(C)C2=O)cn1 [Example 12-25, 1-((1,5-dimethyl-1H-pyrazol-3-yl)methyl)-3-(1-((3,5-dimethylisoxazol-4-yl)methyl)-1H-pyrazol-4-yl)-5,5-dimethylimidazolidine-2,4-dione] | 
 |  | 0.53 | Cc1noc(C)c1Cn1cc(N2C(=O)N(Cc3ccc(F)cc3F)C(C)(C)C2=O)cn1 [Example 12-74, 1-(2,4-difluorobenzyl)-3-(1-((3,5-dimethylisoxazol-4-yl)methyl)-1H-pyrazol-4-yl)-5,5-dimethylimidazolidine-2,4-dione] | 
 |  | 0.42 | Cc1noc(C)c1Cn1cc(N2C(=O)N(Cc3ccn(C)n3)C(C)(C)C2=O)cn1 [Example 12-71, 3-(1-((3,5-dimethylisoxazol-4-yl)methyl)-1H-pyrazol-4-yl)-5,5-dimethyl-1-((1-methyl-1H-pyrazol-3-yl)methyl)imidazolidine-2,4-dione] | 
 |  | 0.31 | COc1cccc(F)c1CN1C(=O)N(c2cnn(Cc3c(C)noc3C)c2)C(=O)C1(C)C [Example 12-65, 3-(1-((3,5-dimethylisoxazol-4-yl)methyl)-1H-pyrazol-4-yl)-1-(2-fluoro-6-methoxybenzyl)-5,5-dimethylimidazolidine-2,4-dione] | 
 |  | 0.32 | Cc1noc(C)c1Cn1cc(N2C(=O)N(Cc3ccccc3)C(C)(C)C2=O)cn1 [Example 12-67, 1-benzyl-3-(1-((3,5-dimethylisoxazol-4-yl)methyl)-1H-pyrazol-4-yl)-5,5-dimethylimidazolidine-2,4-dione] | 
 |  | 0.36 | Cc1noc(C)c1Cn1cc(N2C(=O)N(Cc3ccc(CO)cc3)C(C)(C)C2=O)cn1 [Example 12-88, 3-(1-((3,5-dimethylisoxazol-4-yl)methyl)-1H-pyrazol-4-yl)-1-(4-(hydroxymethyl)benzyl)-5,5-dimethylimidazolidine-2,4-dione] | 
0.04 |  |  | Cc1noc(C)c1Cn1cc(N2C(=O)N(Cc3ccc(C#N)cc3)C(C)(C)C2=O)cn1 [Example 12-16, 4-((3-(1-((3,5-dimethylisoxazol-4-yl)methyl)-1H-pyrazol-4-yl)-5,5-dimethyl-2,4-dioxoimidazolidin-1-yl)methyl)benzonitrile] | 
 |  | 0.58 | Cc1noc(C)c1Cn1cc(N2C(=O)N(CCCc3ccccc3)C(C)(C)C2=O)cn1 [Example 12-78, 3-(1-((3,5-dimethylisoxazol-4-yl)methyl)-1H-pyrazol-4-yl)-5,5-dimethyl-1-(3-phenylpropyl)imidazolidine-2,4-dione] | 
0.11 |  |  | COc1ccc(CN2C(=O)N(c3cnn(Cc4c(C)noc4C)c3)C(=O)C2(C)C)cc1 [Example 12-33, 3-(1-((3,5-dimethylisoxazol-4-yl)methyl)-1H-pyrazol-4-yl)-1-(4-methoxybenzyl)-5,5-dimethylimidazolidine-2,4-dione] | 
0.01 |  |  | Cc1noc(C)c1Cn1cc(N2C(=O)[C@@H](C)N(Cc3ccccc3)C2=O)cn1 [Example 12-37, (R)-1-benzyl-3-(1-((3,5-dimethylisoxazol-4-yl)methyl)-1H-pyrazol-4-yl)-5-methylimidazolidine-2,4-dione] | 
 |  | 0.74 | Cc1ccc(CN2C(=O)N(c3cnn(Cc4c(C)noc4C)c3)C(=O)C2(C)C)cc1 [Example 12-81, 3-(1-((3,5-dimethylisoxazol-4-yl)methyl)-1H-pyrazol-4-yl)-5,5-dimethyl-1-(4-methylbenzyl)imidazolidine-2,4-dione] | 
 |  | 0.31 | Cc1noc(C)c1Cn1cc(N2C(=O)N(Cc3cccc(F)c3F)C(C)(C)C2=O)cn1 [Example 12-66, 1-(2,3-difluorobenzyl)-3-(1-((3,5-dimethylisoxazol-4-yl)methyl)-1H-pyrazol-4-yl)-5,5-dimethylimidazolidine-2,4-dione] | 
 |  | 1.89 | Cc1ccc(CN2C(=O)N(c3cnn(Cc4c(C)noc4C)c3)C(=O)C2(C)C)c(C)c1 [Example 12-86, 1-(2,4-dimethylbenzyl)-3-(1-((3,5-dimethylisoxazol-4-yl)methyl)-1H-pyrazol-4-yl)-5,5-dimethylimidazolidine-2,4-dione] | 
